Laboratory results: patent US10308643B2, “Heterocyclic compound” (Takeda Pharmaceutical Company Limited, priority 2015, dated 2019)
Counter-ions that a name gives are not always drawn.

Legend:
Assay type in all cases: biochemical
HDAC6 enzyme = molecular target: T1, HDAC6 enzyme (Homo sapiens, UniProt Q9UBN7); assay: HDAC1/6 Enzyme Inhibitory Assay (HDAC-Glo I/II Assay kit), HDAC6; settings: 1 μM test compound; wells without enzyme = 100% inhibition; read-out: HDAC6 inhibitory rate (%) (1 μM)
T1 construct: transducing full length HDAC1 and HDAC6 genes into Sf-9 insect cells; GST; purchased SignalChem; host or cells: Sf-9 insect cells
T1 sequence (Q9UBN7 1-1215): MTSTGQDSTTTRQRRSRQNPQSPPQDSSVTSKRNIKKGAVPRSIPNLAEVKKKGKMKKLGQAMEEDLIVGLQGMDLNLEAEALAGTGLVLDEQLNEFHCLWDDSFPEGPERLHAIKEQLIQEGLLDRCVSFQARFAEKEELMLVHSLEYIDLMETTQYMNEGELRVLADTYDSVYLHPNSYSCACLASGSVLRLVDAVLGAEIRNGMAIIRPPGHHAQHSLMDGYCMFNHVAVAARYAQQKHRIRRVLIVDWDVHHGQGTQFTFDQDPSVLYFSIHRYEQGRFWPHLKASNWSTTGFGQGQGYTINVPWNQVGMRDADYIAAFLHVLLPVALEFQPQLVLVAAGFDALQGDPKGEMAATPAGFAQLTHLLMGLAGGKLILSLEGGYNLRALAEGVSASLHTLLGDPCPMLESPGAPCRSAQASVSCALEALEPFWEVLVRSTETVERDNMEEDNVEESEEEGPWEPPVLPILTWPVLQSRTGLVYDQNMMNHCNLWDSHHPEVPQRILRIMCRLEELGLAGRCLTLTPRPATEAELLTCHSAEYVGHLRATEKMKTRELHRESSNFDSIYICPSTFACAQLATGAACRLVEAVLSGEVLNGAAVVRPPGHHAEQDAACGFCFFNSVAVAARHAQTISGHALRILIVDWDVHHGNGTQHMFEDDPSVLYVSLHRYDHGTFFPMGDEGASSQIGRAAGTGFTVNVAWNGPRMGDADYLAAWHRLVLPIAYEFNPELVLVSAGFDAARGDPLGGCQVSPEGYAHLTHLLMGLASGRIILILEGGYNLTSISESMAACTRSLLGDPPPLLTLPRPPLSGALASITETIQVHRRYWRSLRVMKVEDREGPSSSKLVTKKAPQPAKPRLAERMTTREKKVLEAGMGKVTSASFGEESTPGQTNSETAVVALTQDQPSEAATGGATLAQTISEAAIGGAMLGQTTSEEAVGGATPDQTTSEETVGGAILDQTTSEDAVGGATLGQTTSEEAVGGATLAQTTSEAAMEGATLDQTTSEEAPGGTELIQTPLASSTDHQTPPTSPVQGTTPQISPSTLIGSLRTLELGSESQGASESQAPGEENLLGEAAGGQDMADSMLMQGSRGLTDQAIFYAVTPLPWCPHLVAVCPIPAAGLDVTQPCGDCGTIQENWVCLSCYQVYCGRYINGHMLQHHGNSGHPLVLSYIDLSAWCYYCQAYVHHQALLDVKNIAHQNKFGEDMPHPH
Procedure, shortened: (§1)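 Inhibitory activity derives from HDAC-Glo luminescence, expressed relative to wells lacking enzyme (100% inhibition). Compounds meet full-length GST-purified HDAC1 or HDAC6 for 60 min at room temperature before a 20 min substrate-developer reaction.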

HDAC9 enzyme = molecular target: T2, HDAC9 enzyme (Homo sapiens, UniProt Q9UKV0); assay: HDAC9 Enzyme Inhibitory Assay (HDAC-Glo class IIa); settings: 1 μM test compound; wells without enzyme = 100% inhibition; read-out: HDAC9 inhibitory rate (%) (1 μM)
T2 construct: transducing full length HDAC9 gene into Sf-9 insect cells; made in house; host or cells: Sf-9 insect cells
Procedure, shortened: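 Full-length human HDAC9 from Sf-9 cells, Ni-NTA purified, preincubated with compound for 60 min at room temperature in Tris-HCl pH 7.5 buffer (MgCl2, KCl, NaCl, glutathione, Tween-20). HDAC-Glo class IIa substrate-developer added; luminescence read after 20 min, with no-enzyme wells defining 100% inhibition.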

HDAC1 enzyme = molecular target: T3, HDAC1 enzyme (Homo sapiens, UniProt Q13547); assay: HDAC1/6 Enzyme Inhibitory Assay (HDAC-Glo I/II Assay kit), HDAC1; settings: 1 μM test compound, wells without enzyme = 100% inhibition; for inhibition at 1 µM: read-out: HDAC1 inhibitory rate (%) (1 μM)
T3 construct: transducing full length HDAC1 and HDAC6 genes into Sf-9 insect cells; GST; purchased SignalChem; host or cells: Sf-9 insect cells
Procedure, shortened: as §1

T2 sequence (Q9UKV0 whole entry, species assumed): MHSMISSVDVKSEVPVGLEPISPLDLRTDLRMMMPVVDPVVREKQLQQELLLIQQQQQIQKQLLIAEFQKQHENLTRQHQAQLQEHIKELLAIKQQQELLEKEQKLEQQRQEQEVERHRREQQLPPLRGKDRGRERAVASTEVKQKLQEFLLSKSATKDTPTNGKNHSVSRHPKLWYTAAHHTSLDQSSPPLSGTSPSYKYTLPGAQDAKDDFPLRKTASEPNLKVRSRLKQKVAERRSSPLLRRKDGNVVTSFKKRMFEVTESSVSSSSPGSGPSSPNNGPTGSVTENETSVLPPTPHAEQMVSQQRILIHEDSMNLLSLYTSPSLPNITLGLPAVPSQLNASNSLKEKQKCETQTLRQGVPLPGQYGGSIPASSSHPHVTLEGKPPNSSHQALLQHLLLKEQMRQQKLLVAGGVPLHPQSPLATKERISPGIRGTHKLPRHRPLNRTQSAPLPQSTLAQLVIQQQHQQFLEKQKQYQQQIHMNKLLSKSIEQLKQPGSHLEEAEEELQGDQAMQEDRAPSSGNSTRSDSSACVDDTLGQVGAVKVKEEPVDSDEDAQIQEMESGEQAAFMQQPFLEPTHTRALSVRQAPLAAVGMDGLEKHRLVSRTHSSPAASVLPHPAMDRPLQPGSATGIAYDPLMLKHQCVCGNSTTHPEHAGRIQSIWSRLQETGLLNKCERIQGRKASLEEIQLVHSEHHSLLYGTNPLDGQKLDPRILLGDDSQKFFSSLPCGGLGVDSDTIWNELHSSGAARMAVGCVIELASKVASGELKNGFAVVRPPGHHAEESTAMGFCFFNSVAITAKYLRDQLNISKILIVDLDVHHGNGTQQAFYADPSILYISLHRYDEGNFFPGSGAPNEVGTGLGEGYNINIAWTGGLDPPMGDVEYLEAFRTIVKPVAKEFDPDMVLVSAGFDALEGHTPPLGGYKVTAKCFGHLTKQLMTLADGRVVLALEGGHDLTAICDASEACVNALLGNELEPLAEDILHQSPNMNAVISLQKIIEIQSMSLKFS
T3 sequence (Q13547 whole entry): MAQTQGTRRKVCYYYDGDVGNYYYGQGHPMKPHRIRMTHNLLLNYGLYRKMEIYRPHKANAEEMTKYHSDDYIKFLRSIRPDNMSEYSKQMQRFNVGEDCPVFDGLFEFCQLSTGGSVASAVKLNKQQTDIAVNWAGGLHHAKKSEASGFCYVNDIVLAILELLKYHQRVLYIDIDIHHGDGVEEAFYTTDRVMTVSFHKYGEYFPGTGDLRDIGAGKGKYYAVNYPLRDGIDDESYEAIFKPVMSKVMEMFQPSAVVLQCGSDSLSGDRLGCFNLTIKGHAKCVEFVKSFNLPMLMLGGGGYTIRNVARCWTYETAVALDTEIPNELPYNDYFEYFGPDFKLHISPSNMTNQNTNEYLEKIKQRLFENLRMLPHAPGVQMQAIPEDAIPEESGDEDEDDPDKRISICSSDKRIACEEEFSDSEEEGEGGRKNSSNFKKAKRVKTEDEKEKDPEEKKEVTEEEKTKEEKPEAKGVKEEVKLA

Row | SMILES | inhibition at 1 µM (HDAC6 enzyme) [%] | inhibition at 1 µM (HDAC9 enzyme) [%] | inhibition at 1 µM (HDAC1 enzyme) [%] | HDAC1 inhibitory rate (%) (1 μM) (HDAC1 enzyme; 1 µM)
1 | Cc1cc(F)ccc1[C@@H]1CNCC[C@H]1N1Cc2ccc(-c3noc(C(F)(F)F)n3)cc2C1=O (relative stereo) [Example 50, 2-(trans-3-(4-fluoro-2-methylphenyl)piperidin-4-yl)-6-(5-(trifluoromethyl)-1,2,4-oxadiazol-3-yl)isoindolin-1-one] | 98 | 99 | 93 | –
2 | CC(=O)N1CCC(N2Cc3ncc(-c4noc(C(F)(F)F)n4)cc3C2=O)CC1 [Example 38, 6-(1-acetylpiperidin-4-yl)-3-(5-(trifluoromethyl)-1,2,4-oxadiazol-3-yl)-6,7-dihydro-5H-pyrrolo[3,4-b]pyridin-5-one] | 90 | 82 | 25 | –
3 | O=C1c2cc(-c3noc(C(F)(F)F)n3)ccc2CN1[C@@H]1CCOC[C@H]1c1ccccc1 (relative stereo) [Example 34, trans-2-(3-phenyltetrahydro-2H-pyran-4-yl)-6-(5-(trifluoromethyl)-1,2,4-oxadiazol-3-yl)isoindolin-1-one] | 99 | 96 | – | 90
4 | O=C(Cc1ccc(F)cc1)N1CCC(N2Cc3ncc(-c4noc(C(F)(F)F)n4)cc3C2=O)C1 (stereo not drawn) [Example 74, 6-(1-((4-fluorophenyl)acetyl)pyrrolidin-3-yl)-3-(5-(trifluoromethyl)-1,2,4-oxadiazol-3-yl)-6,7-dihydro-5H-pyrrolo[3,4-b]pyridin-5-one] | 86 | 90 | 33 | –
5 | O=C(c1ccccc1)N1CCCC(N2Cc3ncc(-c4noc(C(F)(F)F)n4)cc3C2=O)C1 (stereo not drawn) [Example 40, 6-(1-benzoylpiperidin-3-yl)-3-(5-(trifluoromethyl)-1,2,4-oxadiazol-3-yl)-6,7-dihydro-5H-pyrrolo[3,4-b]pyridin-5-one] | 95 | 97 | 56 | –
6 | O=C1c2cc(-c3noc(C(F)(F)F)n3)ccc2CN1C1CCNC[C@@H]1c1ccccc1 (stereo partly drawn) [Example 22, 2-((3S,4R)-3-phenyipiperidin-4-yl)-6-(5-(trifluoromethyl)-1,2,4-oxadiazol-3-yl)isoindolin-1-one, hydrochloride] | 100 | 96 | 85 | –
7 | Cc1ccc([C@@H]2CNCC[C@H]2N2Cc3ccc(-c4noc(C(F)(F)F)n4)cc3C2=O)cc1Cl (relative stereo) [Example 56, 2-(trans-3-(3-chloro-4-methylphenyl)piperidin-4-yl)-6-(5-(trifluoromethyl)-1,2,4-oxadiazol-3-yl)isoindolin-1-one] | 97 | 99 | 93 | –
8 | O=C1c2cc(-c3noc(C(F)(F)F)n3)ccc2CN1[C@@H]1CCCC[C@H]1NS(=O)(=O)C1CC1 [Example 89, N-((1R,2R)-2-(1-oxo-6-(5-(trifluoromethyl)-1,2,4-oxadiazol-3-yl)-1,3-dihydro-2H-isoindol-2-yl)cyclohexyl) cyclopropanesulfonamide] | 98 | 85 | 37 | –
9 | CC(C)(C)OC(=O)N[C@@H]1CCCC[C@H]1N1Cc2ccc(-c3noc(C(F)(F)F)n3)cc2C1=O [Example 26, tert-butyl ((1R,2R)-2-(1-oxo-6-(5-(trifluoromethyl)-1,2,4-oxadiazol-3-yl)-1,3-dihydro-2H-isoindol-2-yl)cyclohexyl)carbamate] | 98 | 47 | 11 | –
10 | CC(=O)N1CC[C@@H](N2Cc3ccc(-c4noc(C(F)(F)F)n4)cc3C2=O)[C@@H](c2ccccc2)C1 [Example 23, 2-((3S,4R)-1-acetyl-3-phenylpiperidin-4-yl)-6-(5-(trifluoromethyl)-1,2,4-oxadiazol-3-yl)isoindolin-1-one] | 98 | 84 | 58 | –

Second part, the molecule after the results:

Row | inhibition at 1 µM (HDAC6 enzyme) [%] | inhibition at 1 µM (HDAC9 enzyme) [%] | inhibition at 1 µM (HDAC1 enzyme) [%] | HDAC1 inhibitory rate (%) (1 μM) (HDAC1 enzyme; 1 µM) | SMILES
11 | 98 | 39 | 5 | – | O=C(N[C@@H]1CCCC[C@H]1N1Cc2ccc(-c3noc(C(F)(F)F)n3)cc2C1=O)N1CCC1 [Example 159, N-((1R,2R)-2-(1-oxo-6-(5-(trifluoromethyl)-1,2,4-oxadiazol-3-yl)-1,3-dihydro-2H-isoindol-2-yl)cyclohexyl)azetidine-1-carboxamide]
12 | 48 | 51 | 13 | – | O=C(N[C@H]1CCOC[C@@H]1N1Cc2ccc(-c3noc(C(F)(F)F)n3)cc2C1=O)[C@@H]1CCOC1 [Example 209, (3R)-N-((3R,4S)-3-(1-oxo-6-(5-(trifluoromethyl)-1,2,4-oxadiazol-3-yl)-1,3-dihydro-2H-isoindol-2-yl)tetrahydro-2H-pyran-4-yl)tetrahydrofuran-3-carboxamide]
13 | 88 | 31 | 0 | – | O=C1CC(C(=O)N[C@@H]2CCCCC2N2Cc3ccc(-c4noc(C(F)(F)F)n4)cc3C2=O)CN1 (stereo in doubt) [Example 131, (3R)-5-oxo-N-((1R,2R)-2-(1-oxo-6-(5-(trifluoromethyl)-1,2,4-oxadiazol-3-yl)-1,3-dihydro-2H-isoindol-2-yl)cyclohexyl)pyrrolidine-3-carboxamide]
14 | 99 | 55 | 5 | – | O=C(N[C@@H]1CCCC[C@H]1N1Cc2ccc(-c3noc(C(F)(F)F)n3)cc2C1=O)C1CC1F (stereo partly drawn) [Example 132, 2-fluoro-N-((1R,2R)-2-(1-oxo-6-(5-(trifluoromethyl)-1,2,4-oxadiazol-3-yl)-1,3-dihydro-2H-isoindol-2-yl)cyclohexyl)cyclopropanecarboxamide]
15 | 76 | 20 | 1 | – | O=C(N[C@@H]1CCCC[C@H]1N1Cc2ccc(-c3noc(C(F)(F)F)n3)cc2C1=O)N1CC2(COC2)C1 [Example 161, N-((1R,2R)-2-(1-oxo-6-(5-(trifluoromethyl)-1,2,4-oxadiazol-3-yl)-1,3-dihydro-2H-isoindol-2-yl)cyclohexyl)-2-oxa-6-azaspiro[3.3]heptane-6-carboxamide]
16 | 96 | 85 | 35 | – | CC1(C(=O)N[C@@H]2CCCC[C@@H]2N2Cc3ccc(-c4noc(C(F)(F)F)n4)cc3C2=O)COC1 (relative stereo) [Example 200, 3-methyl-N-(cis-2-(1-oxo-6-(5-(trifluoromethyl)-1,2,4-oxadiazol-3-yl)-1,3-dihydro-2H-isoindol-2-yl)cyclohexyl)oxetane-3-carboxamide]
17 | 100 | 59 | 10 | – | O=C(CCC(F)F)N[C@@H]1CCCC[C@H]1N1Cc2ccc(-c3noc(C(F)(F)F)n3)cc2C1=O [Example 126, 4,4-difluoro-N-((1R,2R)-2-(1-oxo-6-(5-(trifluoromethyl)-1,2,4-oxadiazol-3-yl)-1,3-dihydro-2H-isoindol-2-yl)cyclohexyl)butanamide]
18 | 101 | 50 | 10 | – | CC(C)(O)CC(=O)N[C@@H]1CCCC[C@H]1N1Cc2ccc(-c3noc(C(F)(F)F)n3)cc2C1=O [Example 96, 3-hydroxy-3-methyl-N-((1R,2R)-2-(1-oxo-6-(5-(trifluoromethyl)-1,2,4-oxadiazol-3-yl)-1,3-dihydro-2H-isoindol-2-yl)cyclohexyl)butanamide]
